Assay results from article PMC3458792 (Neuron, 2012).
Substitutions are numbered along the chain they refer to.

Key:
Format in all cases: cell-based
GLR-1, STG-2 and SOL-1 [1] = molecular target: T1, GLR-1, STG-2 and SOL-1 (Caenorhabditis elegans, UniProt P34299, Q552Y); test: two-electrode voltage clamp, Xenopus oocytes, agonist-gated current; conditions: 1 mM glutamate
T1 sequence (P34299 26-962 Q552Y): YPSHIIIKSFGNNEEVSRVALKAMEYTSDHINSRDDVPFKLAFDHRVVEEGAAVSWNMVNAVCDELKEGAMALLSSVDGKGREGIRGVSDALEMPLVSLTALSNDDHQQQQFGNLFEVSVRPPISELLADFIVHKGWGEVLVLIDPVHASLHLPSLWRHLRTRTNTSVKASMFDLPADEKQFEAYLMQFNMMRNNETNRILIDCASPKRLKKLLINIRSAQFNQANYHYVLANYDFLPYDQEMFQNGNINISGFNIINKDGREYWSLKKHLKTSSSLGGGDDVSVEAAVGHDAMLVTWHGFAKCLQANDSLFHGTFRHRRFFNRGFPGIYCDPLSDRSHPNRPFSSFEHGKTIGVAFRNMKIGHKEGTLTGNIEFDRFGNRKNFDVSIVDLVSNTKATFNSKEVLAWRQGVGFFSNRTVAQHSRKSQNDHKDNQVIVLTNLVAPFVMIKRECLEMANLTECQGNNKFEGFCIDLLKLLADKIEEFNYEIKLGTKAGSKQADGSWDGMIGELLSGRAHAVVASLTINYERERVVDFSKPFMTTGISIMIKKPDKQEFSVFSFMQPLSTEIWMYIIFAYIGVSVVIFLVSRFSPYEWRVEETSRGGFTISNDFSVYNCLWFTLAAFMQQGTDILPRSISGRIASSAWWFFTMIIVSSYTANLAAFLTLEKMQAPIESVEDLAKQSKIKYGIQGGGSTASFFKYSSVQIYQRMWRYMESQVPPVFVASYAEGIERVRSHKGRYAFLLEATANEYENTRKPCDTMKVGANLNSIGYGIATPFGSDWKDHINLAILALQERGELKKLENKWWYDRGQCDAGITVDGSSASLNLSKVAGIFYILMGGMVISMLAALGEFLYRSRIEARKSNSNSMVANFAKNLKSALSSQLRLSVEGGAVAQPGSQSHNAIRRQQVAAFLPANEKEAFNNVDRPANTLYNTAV
T1 sequence (G5EBI8 1-357 partner): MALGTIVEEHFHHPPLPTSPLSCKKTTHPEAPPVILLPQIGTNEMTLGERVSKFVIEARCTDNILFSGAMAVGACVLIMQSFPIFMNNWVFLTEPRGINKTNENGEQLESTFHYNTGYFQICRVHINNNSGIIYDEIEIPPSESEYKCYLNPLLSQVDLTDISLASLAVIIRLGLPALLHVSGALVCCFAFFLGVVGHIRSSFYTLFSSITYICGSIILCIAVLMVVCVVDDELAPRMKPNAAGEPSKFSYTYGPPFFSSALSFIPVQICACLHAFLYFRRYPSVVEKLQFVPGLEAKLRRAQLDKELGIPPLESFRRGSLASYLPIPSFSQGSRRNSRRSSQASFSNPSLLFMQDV
T1 sequence (Q93212 24-594 partner): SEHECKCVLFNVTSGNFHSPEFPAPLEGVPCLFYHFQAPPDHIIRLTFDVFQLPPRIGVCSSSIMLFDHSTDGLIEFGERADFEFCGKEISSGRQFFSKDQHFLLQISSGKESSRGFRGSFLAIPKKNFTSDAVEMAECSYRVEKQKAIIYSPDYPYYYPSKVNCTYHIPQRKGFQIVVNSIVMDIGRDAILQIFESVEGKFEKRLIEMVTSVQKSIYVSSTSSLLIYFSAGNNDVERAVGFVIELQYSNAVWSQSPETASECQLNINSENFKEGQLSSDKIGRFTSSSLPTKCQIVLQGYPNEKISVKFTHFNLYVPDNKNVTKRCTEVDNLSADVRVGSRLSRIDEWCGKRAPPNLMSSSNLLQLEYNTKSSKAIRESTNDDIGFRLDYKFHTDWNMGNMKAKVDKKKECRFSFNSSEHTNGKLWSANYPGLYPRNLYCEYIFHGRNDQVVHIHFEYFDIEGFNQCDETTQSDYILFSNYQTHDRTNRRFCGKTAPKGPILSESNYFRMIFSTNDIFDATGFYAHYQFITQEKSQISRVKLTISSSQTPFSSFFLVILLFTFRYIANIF

[2] = molecular target: GLR-1, STG-1, SOL-1 and SOL-2 (Caenorhabditis elegans, UniProt P34299); test: patch clamp of C. elegans muscle cells; conditions: -60 mV
Sequence of GLR-1, STG-1, SOL-1 and SOL-2 (P34299 26-962, one chain of several): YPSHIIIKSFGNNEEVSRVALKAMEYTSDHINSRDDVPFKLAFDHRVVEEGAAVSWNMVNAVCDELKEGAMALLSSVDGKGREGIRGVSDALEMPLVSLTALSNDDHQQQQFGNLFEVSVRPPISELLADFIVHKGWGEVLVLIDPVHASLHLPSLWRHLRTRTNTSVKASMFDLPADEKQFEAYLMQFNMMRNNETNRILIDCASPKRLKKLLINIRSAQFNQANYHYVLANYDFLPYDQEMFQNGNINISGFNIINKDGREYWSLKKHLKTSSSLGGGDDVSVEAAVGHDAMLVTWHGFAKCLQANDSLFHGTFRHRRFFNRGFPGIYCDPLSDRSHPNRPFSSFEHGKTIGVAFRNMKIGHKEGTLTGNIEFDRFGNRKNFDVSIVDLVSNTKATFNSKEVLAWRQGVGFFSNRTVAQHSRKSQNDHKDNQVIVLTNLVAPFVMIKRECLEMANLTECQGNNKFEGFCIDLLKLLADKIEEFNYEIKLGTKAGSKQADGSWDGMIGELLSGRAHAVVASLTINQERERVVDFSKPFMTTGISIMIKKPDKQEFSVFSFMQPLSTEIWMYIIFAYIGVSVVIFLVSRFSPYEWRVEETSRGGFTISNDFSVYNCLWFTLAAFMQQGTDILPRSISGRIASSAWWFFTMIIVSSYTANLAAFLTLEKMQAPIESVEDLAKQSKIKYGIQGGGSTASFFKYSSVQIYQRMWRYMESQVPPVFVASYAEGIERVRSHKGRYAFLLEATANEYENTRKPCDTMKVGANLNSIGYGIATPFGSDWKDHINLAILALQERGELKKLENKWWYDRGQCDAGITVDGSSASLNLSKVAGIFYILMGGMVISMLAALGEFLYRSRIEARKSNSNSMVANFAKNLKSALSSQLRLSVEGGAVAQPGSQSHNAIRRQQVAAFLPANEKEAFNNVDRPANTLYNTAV
Sequence of GLR-1, STG-1, SOL-1 and SOL-2 (Q9XUU2 19-436 partner, one chain of several): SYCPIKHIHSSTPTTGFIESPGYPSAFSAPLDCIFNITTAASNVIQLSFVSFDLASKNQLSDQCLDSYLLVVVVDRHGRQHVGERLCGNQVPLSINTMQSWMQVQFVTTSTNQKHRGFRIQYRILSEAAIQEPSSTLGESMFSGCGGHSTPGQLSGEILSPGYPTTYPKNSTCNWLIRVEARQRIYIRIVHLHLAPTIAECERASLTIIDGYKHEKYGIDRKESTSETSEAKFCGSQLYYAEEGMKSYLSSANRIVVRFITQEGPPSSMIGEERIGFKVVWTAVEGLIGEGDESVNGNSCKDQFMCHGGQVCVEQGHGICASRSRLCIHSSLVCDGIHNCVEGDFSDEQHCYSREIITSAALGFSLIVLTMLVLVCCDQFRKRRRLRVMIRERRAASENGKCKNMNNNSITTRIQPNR

GLR-1, STG-2 and SOL-1 [3] = molecular target: T2, GLR-1, STG-2 and SOL-1 (Caenorhabditis elegans, UniProt P34299); test: two-electrode voltage clamp, Xenopus oocytes, agonist-gated current
T2 sequence (P34299 26-962): T1 sequence (P34299 26-962 Q552Y) with Y527Q
T2 sequence (G5EBI8 1-357 partner): T1 sequence (G5EBI8 1-357 partner)
T2 sequence (Q93212 24-594 partner): T1 sequence (Q93212 24-594 partner)

[4] = molecular target: GLR-1, STG-2, SOL-1 and SOL-2 (Caenorhabditis elegans, UniProt P34299, Q552Y); test: as above; conditions: 1 mM glutamate
Sequence of GLR-1, STG-2, SOL-1 and SOL-2 (Caenorhabditis elegans, UniProt P34299, Q552Y) (Q9XUU2 19-436 partner, one chain of several): as above

[5] = molecular target: GLR-1, STG-2, SOL-1 and SOL-2 (Caenorhabditis elegans, UniProt P34299); test: as above
Sequence of GLR-1, STG-2, SOL-1 and SOL-2 (Caenorhabditis elegans, UniProt P34299) (P34299 26-962, one chain of several): as the sequence (P34299 26-962, one chain of several) above
Sequence of GLR-1, STG-2, SOL-1 and SOL-2 (Caenorhabditis elegans, UniProt P34299) (Q9XUU2 19-436 partner, one chain of several): as the sequence (Q9XUU2 19-436 partner, one chain of several) above

GLR-1, STG-1 and SOL-1 = molecular target: T3, GLR-1, STG-1 and SOL-1 (Caenorhabditis elegans, UniProt P34299); test: patch clamp of C. elegans muscle cells; conditions: 100 μM kainate; -60 mV; partial agonist
T3 sequence (P34299 26-962): T1 sequence (P34299 26-962 Q552Y) with Y527Q
T3 sequence (Q15KL0 1-366 partner): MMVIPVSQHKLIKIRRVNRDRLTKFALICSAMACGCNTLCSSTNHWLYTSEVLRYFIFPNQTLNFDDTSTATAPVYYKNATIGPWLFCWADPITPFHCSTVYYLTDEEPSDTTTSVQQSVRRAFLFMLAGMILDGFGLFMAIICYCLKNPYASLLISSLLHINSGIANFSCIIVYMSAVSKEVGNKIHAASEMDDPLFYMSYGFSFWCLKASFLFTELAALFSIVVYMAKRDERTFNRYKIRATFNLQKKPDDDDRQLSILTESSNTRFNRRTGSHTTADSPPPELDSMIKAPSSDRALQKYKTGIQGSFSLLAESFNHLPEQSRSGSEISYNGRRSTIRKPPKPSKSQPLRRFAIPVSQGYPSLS
T3 sequence (Q93212 24-594 partner): T1 sequence (Q93212 24-594 partner)

[6] = 100 μM kainate, partial agonist

Compound	two-electrode voltage clamp, Xenopus oocytes, agonist-gated current (GLR-1, STG-2 and SOL-1 [1])	patch clamp of C. elegans muscle cells ([2]; 3 mM glutamate, agonist)	two-electrode voltage clamp, Xenopus oocytes, agonist-gated current (GLR-1, STG-2 and SOL-1 [3]; 1 mM glutamate, agonist)	two-electrode voltage clamp, Xenopus oocytes, agonist-gated current [4]	two-electrode voltage clamp, Xenopus oocytes, agonist-gated current ([5]; 1 mM glutamate, agonist)	patch clamp of C. elegans muscle cells (GLR-1, STG-1 and SOL-1)	patch clamp of C. elegans muscle cells [2, 6]	two-electrode voltage clamp, Xenopus oocytes, agonist-gated current (GLR-1, STG-2 and SOL-1 [3]; [6])	two-electrode voltage clamp, Xenopus oocytes, agonist-gated current [5, 6]
N[C@@H](CCC(=O)O)C(=O)O [Glu, glutamate]	glutamate-gated current recorded from Xenopus oocytes that expressed GLR-1(Q552Y), STG-2, and SOL-1 did not desensitize	glutamate-gated currents of approximately the same magnitude and kinetics in transgenic muscles	We recorded both glutamate- and kainate-gated currents from oocytes	there was considerable desensitization when SOL-2 was co-expressed	We recorded both glutamate- and kainate-gated currents from oocytes				
C=C(C)[C@H]1CN[C@H](C(=O)O)[C@H]1CC(=O)O [KA, kainate]						the presence of SOL-2 markedly reduced the magnitude of the kainate-gated current	the presence of SOL-2 markedly reduced the magnitude of the kainate-gated current	We recorded both glutamate- and kainate-gated currents from oocytes	The kainate-gated current appeared faster and smaller with co-expression of SOL-2
